Entries after “also recorded” stand apart in the source; their conditions may differ.
Columns and labels:
mTOR = mTOR (Homo sapiens, UniProt P42345); conditions: cited from earlier work
[1] = test system: Caki-1 RCC xenograft tumors; assay: Tumor hypoxia (pimonidazole, morphometric analysis) in Caki-1 xenograft; format: in vivo, nude mice; conditions: for tumor hypoxic fraction: temsirolimus 20 mg/kg i.p. QD×8, TH-302 150 mg/kg i.p., sampled 72 hr after TH-302; for change of tumor hypoxia (in words): vs vehicle, combination vs mTOR inhibitor alone
Method: Nude mice bearing 786-0 or Caki-1 RCC xenograft tumors were randomized into 4 groups (6-8 mice/group): vehicle, mTOR inhibitor, TH-302 monotherapy, and TH-302 in combination with mTOR inhibitor, respectively. In the mTOR inhibitor monotherapy group, animals were dosed with a QD×8 regimen, and tumors were sampled 4 hr after the last treatment. In the TH-302 monotherapy group, 150 mg/kg was administered intraperitoneally to the animals, and the tumors were sampled 72 hr after the TH-302 treatment. In the combination therapy group, TH-302 was administered 4 hr after the last dose of mTOR inhibitor (QD×8, oral), and the tumors were sampled 72 hr later. Pimonidazole was administered 1 hr before euthanization (tumors were sampled on euthanization).
A dose of 20 mg/kg of temsirolimus was administered intraperitoneally in the Caki-1 xenograft model. […] After temsirolimus treatment, the tumor hypoxic fraction was 12.8±0.7%, as compared to 7.5±1.9% in vehicle treated group (p<0.05). The tumor hypoxic fraction in the TH-302 monotherapy group was 4.3±0.7%.

786-0 cells [2] = assay: 786-0 RCC ectopic xenograft, TH-302 with temsirolimus; format: in vivo, nude mice; conditions: 786-0 model; temsirolimus 20 mg/kg QD×19 i.p.; TH-302 50 mg/kg QD×5/week×2 to 3 weeks i.p.; combination range covers day 1 and day 8 schedules
Description: (§1) In one combination therapy group, the temsirolimus and TH-302 administration both began on day 1; in the other combination therapy group, the TH-302 administration was initiated on day 8 after the first temsirolimus administration. Thus, two TH-302 monotherapy groups served as comparison groups (one group starting on day 1 and the other starting on day 8). […] The weight returned to normal when treatment stopped.

DNA-PK = DNA-PK (Homo sapiens, UniProt P78527); conditions: cited from earlier work
PI3K = conditions: read-out: IC50 for PI3-K; cited from earlier work
Caki-1 cells [3] = assay: Caki-1 RCC ectopic xenograft, TH-302 with temsirolimus; format: in vivo, nude mice; conditions: Caki-1 model, temsirolimus 20 mg/kg QD×19 i.p.
Description: as §1

786-0 cells [4] = assay: 786-0 RCC ectopic xenograft, TH-302 with everolimus; format: in vivo, nude mice; conditions: 786-0 model; everolimus 5 mg/kg QD×19 p.o.; TH-302 50 mg/kg QD×5/week×3 weeks i.p.; both started day 1
[5] = test system: 786-0 RCC xenograft tumors; assay: Tumor hypoxia (pimonidazole, morphometric analysis) in 786-0 xenograft; format: in vivo, nude mice; conditions: for tumor hypoxic fraction: everolimus 5 mg/kg oral QD×8, TH-302 150 mg/kg i.p., sampled 72 hr after TH-302
Caki-1 cells [6] = assay: Caki-1 RCC ectopic xenograft, TH-302 with everolimus; format: in vivo, nude mice; conditions: Caki-1 model; everolimus 5 mg/kg QD×19 p.o.; TH-302 50 mg/kg QD×5/week×3 weeks i.p.; both started day 1
SK-N-BE(2) cells = assay: SK-N-BE(2) ectopic neuroblastoma model, TH-302 with everolimus; format: in vivo; conditions: SK-N-BE(2) model; everolimus 5 mg/kg QD×19 oral; TH-302 50 mg/kg QD×5/week×3 weeks i.p.
Ki67, CD31, p-S6 = assay: Pharmacodynamic study using immunohistochemistry of tumor tissue; format: in vivo, nude mice; conditions: after 7 days treatment of everolimus
NCI-60 cell lines panel = conditions: cited from earlier work

Sequence of DNA-PK (P78527 whole entry): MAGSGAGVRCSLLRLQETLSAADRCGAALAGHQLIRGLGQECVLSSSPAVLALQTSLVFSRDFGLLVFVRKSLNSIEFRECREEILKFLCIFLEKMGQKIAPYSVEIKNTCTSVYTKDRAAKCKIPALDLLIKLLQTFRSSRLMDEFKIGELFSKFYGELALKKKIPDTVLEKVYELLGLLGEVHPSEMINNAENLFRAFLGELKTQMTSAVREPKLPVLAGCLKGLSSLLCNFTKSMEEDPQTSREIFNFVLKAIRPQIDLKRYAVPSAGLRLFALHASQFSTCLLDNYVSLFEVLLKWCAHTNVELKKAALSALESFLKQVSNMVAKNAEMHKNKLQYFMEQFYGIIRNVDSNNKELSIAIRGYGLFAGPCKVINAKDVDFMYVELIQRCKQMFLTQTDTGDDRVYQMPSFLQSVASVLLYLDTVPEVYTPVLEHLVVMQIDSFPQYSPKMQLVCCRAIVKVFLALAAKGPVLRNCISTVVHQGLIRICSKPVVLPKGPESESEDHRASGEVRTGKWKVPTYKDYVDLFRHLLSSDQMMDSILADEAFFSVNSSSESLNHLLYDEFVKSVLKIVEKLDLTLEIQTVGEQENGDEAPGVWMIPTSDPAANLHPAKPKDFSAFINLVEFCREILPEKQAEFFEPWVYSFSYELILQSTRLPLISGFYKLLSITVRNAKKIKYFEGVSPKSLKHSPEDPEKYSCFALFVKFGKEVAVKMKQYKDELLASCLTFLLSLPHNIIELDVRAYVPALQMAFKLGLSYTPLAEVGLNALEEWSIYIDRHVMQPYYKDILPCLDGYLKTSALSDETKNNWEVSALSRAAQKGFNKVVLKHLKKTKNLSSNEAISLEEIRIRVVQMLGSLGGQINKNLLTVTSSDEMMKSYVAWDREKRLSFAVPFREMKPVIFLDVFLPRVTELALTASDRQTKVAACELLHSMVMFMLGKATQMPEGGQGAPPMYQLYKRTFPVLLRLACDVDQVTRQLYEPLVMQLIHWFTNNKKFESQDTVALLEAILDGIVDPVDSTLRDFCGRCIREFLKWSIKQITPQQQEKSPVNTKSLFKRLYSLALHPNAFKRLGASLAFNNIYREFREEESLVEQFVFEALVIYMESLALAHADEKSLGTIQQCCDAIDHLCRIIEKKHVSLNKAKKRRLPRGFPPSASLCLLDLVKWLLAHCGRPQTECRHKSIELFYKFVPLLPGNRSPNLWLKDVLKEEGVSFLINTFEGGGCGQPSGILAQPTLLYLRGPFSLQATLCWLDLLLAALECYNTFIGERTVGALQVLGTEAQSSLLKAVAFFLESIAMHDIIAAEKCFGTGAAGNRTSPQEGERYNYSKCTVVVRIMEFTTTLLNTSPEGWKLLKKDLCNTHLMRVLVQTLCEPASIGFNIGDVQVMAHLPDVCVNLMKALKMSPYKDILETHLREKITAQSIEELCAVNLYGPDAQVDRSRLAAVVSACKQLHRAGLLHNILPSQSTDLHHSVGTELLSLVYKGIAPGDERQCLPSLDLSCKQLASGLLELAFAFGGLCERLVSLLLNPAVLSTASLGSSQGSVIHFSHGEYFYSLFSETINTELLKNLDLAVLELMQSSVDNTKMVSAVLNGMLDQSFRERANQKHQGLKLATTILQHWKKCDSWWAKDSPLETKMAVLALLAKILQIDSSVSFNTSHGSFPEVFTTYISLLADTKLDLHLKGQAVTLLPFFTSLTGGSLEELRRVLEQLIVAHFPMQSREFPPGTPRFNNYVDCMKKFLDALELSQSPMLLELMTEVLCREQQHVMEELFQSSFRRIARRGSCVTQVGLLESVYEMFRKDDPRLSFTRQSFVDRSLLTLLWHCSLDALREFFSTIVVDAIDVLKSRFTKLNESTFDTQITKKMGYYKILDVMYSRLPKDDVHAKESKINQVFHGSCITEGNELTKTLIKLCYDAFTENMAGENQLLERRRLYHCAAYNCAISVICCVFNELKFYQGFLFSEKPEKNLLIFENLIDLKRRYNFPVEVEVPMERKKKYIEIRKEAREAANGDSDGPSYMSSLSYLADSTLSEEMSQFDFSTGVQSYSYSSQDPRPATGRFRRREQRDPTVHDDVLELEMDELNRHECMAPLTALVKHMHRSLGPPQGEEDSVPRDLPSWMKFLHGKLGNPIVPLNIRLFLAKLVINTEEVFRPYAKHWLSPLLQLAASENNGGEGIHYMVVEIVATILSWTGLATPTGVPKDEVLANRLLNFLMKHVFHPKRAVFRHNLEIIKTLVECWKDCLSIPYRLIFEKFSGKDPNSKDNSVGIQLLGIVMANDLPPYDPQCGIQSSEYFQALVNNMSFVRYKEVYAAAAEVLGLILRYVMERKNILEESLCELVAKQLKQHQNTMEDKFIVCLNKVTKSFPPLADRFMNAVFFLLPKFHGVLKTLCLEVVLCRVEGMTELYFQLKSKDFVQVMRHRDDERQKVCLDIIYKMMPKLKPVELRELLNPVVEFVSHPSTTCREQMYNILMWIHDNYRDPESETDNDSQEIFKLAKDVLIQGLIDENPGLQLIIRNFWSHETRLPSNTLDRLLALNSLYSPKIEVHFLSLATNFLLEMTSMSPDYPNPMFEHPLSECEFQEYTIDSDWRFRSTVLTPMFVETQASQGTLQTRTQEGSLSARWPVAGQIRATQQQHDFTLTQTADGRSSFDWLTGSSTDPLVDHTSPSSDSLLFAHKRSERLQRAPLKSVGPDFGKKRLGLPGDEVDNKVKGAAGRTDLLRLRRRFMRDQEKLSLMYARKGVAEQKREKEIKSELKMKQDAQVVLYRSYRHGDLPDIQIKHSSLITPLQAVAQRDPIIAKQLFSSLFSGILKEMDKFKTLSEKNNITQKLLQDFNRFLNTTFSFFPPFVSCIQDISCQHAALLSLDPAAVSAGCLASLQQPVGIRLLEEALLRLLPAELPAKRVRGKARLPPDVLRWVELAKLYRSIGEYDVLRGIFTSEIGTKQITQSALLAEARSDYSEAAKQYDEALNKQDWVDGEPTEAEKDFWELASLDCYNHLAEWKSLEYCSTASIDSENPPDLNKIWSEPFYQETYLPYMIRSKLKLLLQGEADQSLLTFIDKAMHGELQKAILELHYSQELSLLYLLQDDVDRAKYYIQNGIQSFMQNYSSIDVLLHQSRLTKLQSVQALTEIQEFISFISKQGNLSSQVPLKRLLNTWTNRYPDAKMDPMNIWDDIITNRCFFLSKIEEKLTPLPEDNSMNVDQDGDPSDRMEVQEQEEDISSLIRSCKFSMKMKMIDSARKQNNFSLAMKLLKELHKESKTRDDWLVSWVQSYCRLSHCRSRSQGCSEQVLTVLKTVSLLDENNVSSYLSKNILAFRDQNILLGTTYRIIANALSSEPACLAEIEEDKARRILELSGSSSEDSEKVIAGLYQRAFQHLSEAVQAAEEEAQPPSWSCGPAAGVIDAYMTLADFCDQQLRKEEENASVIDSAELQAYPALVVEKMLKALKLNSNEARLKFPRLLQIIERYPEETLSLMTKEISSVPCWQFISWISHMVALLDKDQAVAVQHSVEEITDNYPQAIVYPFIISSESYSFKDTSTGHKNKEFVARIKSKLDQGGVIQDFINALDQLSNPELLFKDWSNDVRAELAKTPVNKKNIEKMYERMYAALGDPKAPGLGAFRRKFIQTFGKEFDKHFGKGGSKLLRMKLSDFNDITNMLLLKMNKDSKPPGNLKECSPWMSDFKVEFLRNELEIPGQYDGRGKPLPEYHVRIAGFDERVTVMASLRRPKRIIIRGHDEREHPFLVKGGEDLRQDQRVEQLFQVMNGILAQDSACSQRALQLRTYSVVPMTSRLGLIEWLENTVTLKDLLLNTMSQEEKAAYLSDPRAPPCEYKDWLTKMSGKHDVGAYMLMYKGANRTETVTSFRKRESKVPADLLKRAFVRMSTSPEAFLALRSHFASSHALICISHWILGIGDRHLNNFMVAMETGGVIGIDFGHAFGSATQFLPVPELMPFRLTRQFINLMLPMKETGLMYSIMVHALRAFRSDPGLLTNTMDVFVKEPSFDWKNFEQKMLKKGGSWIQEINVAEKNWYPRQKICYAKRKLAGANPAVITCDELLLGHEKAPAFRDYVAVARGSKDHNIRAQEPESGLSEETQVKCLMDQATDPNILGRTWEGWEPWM

COC(=O)Nc1ccc(-c2nc(N3CCOCC3)c3cnn(C4CCN(C(=O)OC)CC4)c3n2)cc1 [WYE-354]
IC50 (mTOR): 5 nM

CO[C@H]1C[C@@H]2CC[C@@H](C)[C@@](O)(O2)C(=O)C(=O)N2CCCC[C@H]2C(=O)O[C@H]([C@H](C)C[C@@H]2CC[C@@H](OC(=O)C(C)(CO)CO)[C@H](OC)C2)CC(=O)[C@H](C)/C=C(\C)[C@@H](O)[C@@H](OC)C(=O)[C@H](C)C[C@H](C)/C=C/C=C/C=C/1C [temsirolimus]
tumor hypoxic fraction [1]: 12.8±0.7%
change of tumor hypoxia (in words) [1]: significant increase of tumor hypoxia; also recorded: significantly increases tumor hypoxia
tumor growth inhibition (TGI) (786-0 cells [2]): 113%

O=c1cc(N2CCOCC2)oc2c(-c3cccc4c3sc3ccccc34)cccc12 [NU7441]
IC50 (DNA-PK): 10 nM
IC50 (mTOR): 1700 nM
IC50 (PI3K): 5 µM

CNC(=O)Nc1ccc(-c2nc(N3CC4CCC(C3)O4)c3cnn(C4CCC5(CC4)OCCO5)c3n2)cc1 [WYE-125132]
IC50 (mTOR): 0.19 nM

Cn1c(COP(=O)(NCCBr)NCCBr)cnc1[N+](=O)[O-] [TH-302]
tumor growth inhibition (TGI) (Caki-1 cells [3]; TH-302 50 mg/kg i.p. starting on day 1): 79%
tumor growth inhibition (TGI) (Caki-1 cells [3]; TH-302 50 mg/kg i.p. starting on day 8): 89%
tumor growth inhibition (TGI) (786-0 cells [4]): did not demonstrate statistically significant efficacy; also recorded: did not demonstrate statistically significant TGI
tumor hypoxic fraction [5]: 3.7±1.2%
tumor growth inhibition (TGI) (Caki-1 cells [6]): 57%
tumor hypoxic fraction [1]: 4.3±0.7%
change of tumor hypoxia (in words) [1]: reduces the size of the hypoxic region
tumor growth inhibition (TGI) (SK-N-BE(2) cells): 45%

CO[C@H]1C[C@@H]2CC[C@@H](C)[C@@](O)(O2)C(=O)C(=O)N2CCCC[C@H]2C(=O)O[C@H]([C@H](C)C[C@@H]2CC[C@@H](OCCO)[C@H](OC)C2)CC(=O)[C@H](C)/C=C(\C)[C@@H](O)[C@@H](OC)C(=O)[C@H](C)C[C@H](C)/C=C/C=C/C=C/1C [everolimus]
tumor growth inhibition (TGI) (786-0 cells [4]): 49%
cell proliferation (expression of nuclear antigen Ki67) (Ki67, CD31, p-S6): significantly decreased
microvessel density (angiogenic marker CD31) (Ki67, CD31, p-S6): significantly decreased
phosphorylation of the S6 ribosomal protein (p-S6) (Ki67, CD31, p-S6): significantly decreased
tumor hypoxic fraction [5]: 6.3±1.5%
change of tumor hypoxia (in words) ([5]; vs vehicle, combination vs mTOR inhibitor alone): increased hypoxia in the tumor; also recorded: significantly increases tumor hypoxia
tumor growth inhibition (TGI) (Caki-1 cells [6]): 52%
IC50 (mTOR): 0.6 nM
tumor growth inhibition (TGI) (SK-N-BE(2) cells): 40%

COc1ccc(COc2cc3oc(=O)c4cc(C(C)O)ccc4c3cc2OC)cc1 (stereo not drawn) [Palomid 529]
GI50 (NCI-60 cell lines panel): < 35 µM

c1cncc(CN2CCC(n3ncc4c(N5CCOCC5)nc(-c5ccc6[nH]ccc6c5)nc43)CC2)c1 [WAY-600]
IC50 (mTOR): 9 nM
